Assay results reported in ChEMBL document CHEMBL1129027, “4'-Methyl derivatives of 5-MOP and 5-MOA: synthesis, photoreactivity, and photobiological activity” (J Med Chem, 1996).
pIC50: −log10 of the molar value. Active and inactive are the calls of the source. The calls are words filed in the database; no cut-off is given here.

Tests used:
Cavia porcellus [1] = species: Cavia porcellus; test: Compound was tested for skin photosensitizing potency in guinea pig, after exposure to 50 microg cm e-2,and 20 kJ m e-2 of UVA; Absent; assay type: functional, organism-based
HL-60 = test: Compound was evaluated for cell growth inhibition against HL 60 cell line by irradiation in the presence of examined compound; assay type: functional, cell-based; conditions: Homo sapiens, HL-60, light or radiation study
HeLa = test: Compound was evaluated for cell growth inhibition against HeLa cell line by irradiation in the presence of examined compound; assay type: functional, cell-based; conditions: Homo sapiens, light or radiation study
A-431 = test: Compound was evaluated for cell growth inhibition against A 431 cell line by irradiation in the presence of examined compound; assay type: functional, cell-based; conditions: Homo sapiens, A-431, light or radiation study
Nucleic Acid [2] = test: Rate constant of the photoreaction between compound and DNA; assay type: nucleic-acid assay; conditions: Bos taurus
Nucleic Acid [3] = test: Binding parameters of complexes between compound and DNA; assay type: nucleic-acid assay; conditions: Bos taurus
Cavia porcellus [4] = species: Cavia porcellus; test: Compound was tested for skin photosensitizing potency in guinea pig, after exposure to 50 microg cm e-2,and 20 kJ m e-2 of UVA; Medium; assay type: functional, organism-based
Cavia porcellus [5] = test: Compound was tested for skin photosensitizing potency in guinea pig, after exposure to 50 microg cm e-2,and 20 kJ m e-2 of UVA; strong(with edema); assay type: functional, organism-based

SMILES | Formation of erythema (Cavia porcellus [1]) | pIC50 (HL-60) | pIC50 (HeLa) | pIC50 (A-431) | Rate constant (Nucleic Acid [2]) [min⁻¹] | K (Nucleic Acid [3]) [M⁻¹] | Formation of erythema (Cavia porcellus [4]) | Formation of erythema (Cavia porcellus [5])
COc1cc2occc2c2oc(=O)ccc12 [ISOBERGAPTENE] | inactive | < 5.00 | < 5.00 | 5.11 |  |  |  | 
COc1cc2occ(C)c2c2oc(=O)cc(C)c12 | inactive | 6.16 | 5.90 | 5.88 | 2.2 | 3700 |  | 
COc1cc2occ(C)c2c2oc(=O)c(C)cc12 | inactive | 6.23 | 5.97 | 5.86 | 0.17 | 3100 |  | 
COc1c2cc(C)c(=O)oc2cc2occ(C)c12 |  | 5.57 | 5.17 | 5.11 | 0.32 | 920 | Medium | 
COc1c2c(C)coc2cc2oc(=O)cc(C)c12 | inactive | 6.17 | 5.75 | 5.87 | 2.1 | 630 |  | 
COc1c2occc2cc2ccc(=O)oc12 [METHOXSALEN] |  | 6.12 | 5.50 | 5.61 |  |  |  | Active
